This is an account of results in patent US8414660B2, “Haloferax volcanii laccase and variants and fragments thereof” (University of Florida Research Foundation, Inc., priority 2009, dated 2013).

Data set [1] concerns the target T1, LccA isolated from Hfx. volcanii SB01 (Haloferax volcanii, UniProt D4GPK6).
T1 construct: made in house; host or cells: Haloferax volcanii SB01 (H26 carrying plasmid pJAM822), secreted into culture broth
T1 sequence (D4GPK6 32-579): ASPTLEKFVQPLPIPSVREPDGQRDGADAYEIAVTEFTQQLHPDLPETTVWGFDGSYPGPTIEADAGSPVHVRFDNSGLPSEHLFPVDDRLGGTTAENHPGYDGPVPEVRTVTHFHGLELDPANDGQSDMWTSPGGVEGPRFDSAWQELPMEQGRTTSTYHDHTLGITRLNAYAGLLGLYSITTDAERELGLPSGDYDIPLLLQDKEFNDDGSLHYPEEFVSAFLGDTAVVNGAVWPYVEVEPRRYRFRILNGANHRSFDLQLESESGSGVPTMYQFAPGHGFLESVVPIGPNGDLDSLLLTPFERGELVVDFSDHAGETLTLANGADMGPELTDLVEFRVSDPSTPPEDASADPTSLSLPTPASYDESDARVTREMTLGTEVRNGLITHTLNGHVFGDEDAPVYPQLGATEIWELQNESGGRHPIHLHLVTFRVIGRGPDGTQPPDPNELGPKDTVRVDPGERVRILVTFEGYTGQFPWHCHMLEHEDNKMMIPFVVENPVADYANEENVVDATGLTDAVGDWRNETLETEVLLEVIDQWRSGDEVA
Nature of the data set: biochemical. As to conditions: for Inhibition of observed LccA activity: 0.1 to 1 mM; for inhibition at 10000 µM: read-out: Inhibition / reduction in LccA activity.

For data set [2] the following is noted: literature; cited from earlier work.
A short description of data set [3]: Laccase activity assay, oxidation of SGZ (syringaldazine).
Experimental: LccA (51 μg·ml^−1) activity was assayed at different temperatures (22° to 70° C.) in T buffer with 185 mM NaCl using SGZ (1 mM) as the substrate. […] LccA activity was assayed with SGZ (●) from pH 6 to 11 and with ABTS (◯) from pH 3 to 8 at 45° C. using following buffers: 100 mM sodium acetate for pH 3 to 6, 25 mM Tris-HCl for pH 7 to 10, and 25 mM glycine-NaOH for pH 11. Activity is expressed as percent relative to oxidation of ABTS at pH 6. […] Purified enzyme (50.6 μg·ml^−1) was pre-incubated in T buffer supplemented with 185 mM NaCl at temperatures from 37° to 70° C. for up to 60 h, as indicated. […] Activity is presented as percent relative to incubation on ice (37° C. (●), 45° C. (▪), 50° C. (▴), 55° C. (♦), 60° C. (◯), 65° C. (□) and 70° C. (Δ)); FIG. 6E-Salt tolerance of LccA protein. Purified enzyme (16.5 μg·ml^−1) was pre-incubated for 30 min in T buffer at pH 8.4 supplemented with different concentrations of NaCl (0 to 1.4 M) as indicated. Samples were diluted to a final concentration 4.12 μg·ml^−1 protein and 185 mM NaCl in T buffer and assayed for SGZ oxidizing activity under standard conditions. Residual activity was calculated as percent relative to incubation at 185 mM NaCl. […] Enzyme (7.5 μg·ml^−1) was incubated in T buffer with 185 mM NaCl in the presence and absence of 25% (v/v) solvent (DMSO, DMF, ethanol and methanol) at room temperature for 90 min (white bar), 3 h (grey bar) and 24 h (black bar). […] Activity is calculated as percent relative to incubation without solvent.
Enzyme activity was determined by change in absorbance, in triplicate, by UV/Visible-spectroscopy using a BioTek Synergy HT multi-detection microplate reader with a 96-well plate. Oxidation of substrate was monitored by absorbance increase (ABTS at 420 nm with ε=36,000 M^−1 cm^−1; SGZ at 526 nm with ε=65,000 M^−1 cm^−1; DMP at 468 nm with ε=49,000 M^−1 cm^−1; guaiacol at 436 nm with ε=26,600 M^−1 cm^−1; ferrous ammonium sulfate at 315 nm with ε=2,200 M^−1 cm^−1) or decrease (bilirubin at 440 nm with ε=56,300 M^−1 cm^−1). Standard assay conditions were 185 mM NaCl at 45° C. with the following buffers and substrate concentrations: 100 mM sodium acetate buffer at pH 6.0 for ABTS (at 5 mM), DMP (at 2 mM) and guaiacol (at 5 mM); 25 mM Tris-HCl buffer at pH 8.4 for SGZ (at 1 mM); and 200 mM Tris-HCl buffer at pH 8.4 for bilirubin (0.45 mM). Copper sulfate (1 mM) was included for assay of DMP oxidation. Oxidation of ferrous ammonium sulphate (1 mM) was monitored at 315 nm (ε=2,200 M^−1 cm^−1) with and without salt (185 mM NaCl) in 100 mM MES (morpholineethanesulfonic acid) buffer at pH 5 as well as 25 mM Tris-HCl buffer at pH 7.0 and 8.4. One unit of enzyme activity is defined as the amount of enzyme that oxidizes 1 μmol of substrate per min at standard conditions. […] Kinetic parameters (Km, Vmax, and kcat) were determined using the Michaelis-Menten equation. […] All assays and protein purifications were performed at least in triplicate.
To further evaluate the catalytic properties of LccA, the temperature, pH and salt optima of the purified enzyme were determined using SGZ and/or ABTS as substrates.
The conditions of data set [4]: comparator laccase-like enzymes, literature, cited from earlier work.
The conditions of data set [5]: comparator laccase-like enzymes, literature, cited from earlier work. The source holds these as a separate data set.
[6] abbreviates: compound 0.1 mM, 10 min at 45° C.
The mark [7] stands for this setting: compound 1 mM, 10 min at 45° C.
Setting [8] is: compound 10 mM, 10 min at 45° C.

Several values for one entry are separate records, joined by “and”; a condition that tells them apart may be missing. Equal values may be shown once. Read-outs that look alike come from different tables or passages of the source.

`O[C@@H](CS)[C@@H](O)CS` (racemic) [DL-Dithiothretol]: the “Inhibition of observed LccA activity” value in data set [1] is reported as “strong inhibitors”. Also, the “Relative Activity of LccA” value in data set [1] (compound 0.01 mM, 10 min at 45° C.) is on record as 90.5 ± 5.5%; in data set [1] (setting [6]) it was “u.d”; in data set [1] (setting [7]) it was “u.d”.

Take `c1cnc2c(c1)ccc1cccnc12` [1,10-Phenanthroline]: the inhibition at 10000 µM in data set [1] (10 mM) worked out at 90%. Besides, the entries for the “Relative Activity of LccA” value in data set [1] (setting [7]) and in data set [1] (setting [8]) were 85.3 ± 3.4% and 10.9 ± 3.9%, respectively.

For the molecule `c1ccc(-c2ccccn2)nc1` [2,2-Dipyridyl], in data set [1] (10 mM), the “Inhibition / reduction in LccA activity” value amounted to 25%. Besides, the entries for the “Relative Activity of LccA” value in data set [1] (setting [7]) and in data set [1] (setting [8]) were 86.6 ± 3.3% and 75.2 ± 2.3%, respectively.

In the case of `O=C(O)CN(CCN(CC(=O)O)CC(=O)O)CC(=O)O` [EDTA], in data set [1], the “Inhibitory activity toward LccA” value was “no inhibitory activity”; the “Relative Activity of LccA” value is 100.6 ± 1.8% and 106.3 ± 5.8% and 123.6 ± 3.2% and 123.7 ± 3.0%.

Consider `N[C@@H](CS)C(=O)O` [L-Cysteine], for which the “Inhibition of observed LccA activity” value in data set [1] is reported as “strong inhibitors”. The figures for the “Relative Activity of LccA” value in data set [1] (setting [6]) and in data set [1] (setting [7]) were 83.0 ± 3.7% and “u.d.^c”, respectively.

As to `NC(N)=S` [Thiourea], in data set [1] (10 mM), the inhibition at 10000 µM turned out to be 90%. Also, the figures for the “Relative Activity of LccA” value in data set [1] (setting [7]) and in data set [1] (setting [8]) were 96.5 ± 3.9% and 9.5 ± 1.3%, respectively.

For the molecule McoA [reference compound], in data set [2], the Temperature optimum was 70 °C.

B1: LccA-StrepII: LccA with a C-terminal StrepII tag (-WSHPQFEK), purified from Hfx. volcanii SB01 (protein, UniProt D4GPK6 32-579, looked up)
Laccase: ASPTLEKFVQPLPIPSVREPDGQRDGADAYEIAVTEFTQQLHPDLPETTVWGFDGSYPGPTIEADAGSPVHVRFDNSGLPSEHLFPVDDRLGGTTAENHPGYDGPVPEVRTVTHFHGLELDPANDGQSDMWTSPGGVEGPRFDSAWQELPMEQGRTTSTYHDHTLGITRLNAYAGLLGLYSITTDAERELGLPSGDYDIPLLLQDKEFNDDGSLHYPEEFVSAFLGDTAVVNGAVWPYVEVEPRRYRFRILNGANHRSFDLQLESESGSGVPTMYQFAPGHGFLESVVPIGPNGDLDSLLLTPFERGELVVDFSDHAGETLTLANGADMGPELTDLVEFRVSDPSTPPEDASADPTSLSLPTPASYDESDARVTREMTLGTEVRNGLITHTLNGHVFGDEDAPVYPQLGATEIWELQNESGGRHPIHLHLVTFRVIGRGPDGTQPPDPNELGPKDTVRVDPGERVRILVTFEGYTGQFPWHCHMLEHEDNKMMIPFVVENPVADYANEENVVDATGLTDAVGDWRNETLETEVLLEVIDQWRSGDEVA
modifications: C-terminal StrepII tag
B1: in data set [3] (SGZ oxidation), the “Specific activity lower than US02 purified LccA” value is given as “over 20 fold”. For the same molecule, in data set [3] (purified from culture broth of Hfx. volcanii SB01 (C-terminal StrepII tag), final MonoQ 10/10 pH 8.4), the “Specific activity, SGZ oxidation” value was 1.3 U·mg^−1.

B2: CotA, Bacillus subtilis: Bacillus subtilis spore coat protein A with laccase activity (Martins et al., 2002) (protein, UniProt P07788 1-513, looked up)
Laccase: MTLEKFVDALPIPDTLKPVQQSKEKTYYEVTMEECTHQLHRDLPPTRLWGYNGLFPGPTIEVKRNENVYVKWMNNLPSTHFLPIDHTIHHSDSQHEEPEVKTVVHLHGGVTPDDSDGYPEAWFSKDFEQTGPYFKREVYHYPNQQRGAILWYHDHAMALTRLNVYAGLVGAYIIHDPKEKRLKLPSDEYDVPLLITDRTINEDGSLFYPSAPENPSPSLPNPSIVPAFCGETILVNGKVWPYLEVEPRKYRFRVINASNTRTYNLSLDNGGDFIQIGSDGGLLPRSVKLNSFSLAPAERYDIIIDFTAYEGESIILANSAGCGGDVNPETDANIMQFRVTKPLAQKDESRKPKYLASYPSVQHERIQNIRTLKLAGTQDEYGRPVLLLNNKRWHDPVTETPKVGTTEIWSIINPTRGTHPIHLHLVSFRVLDRRPFDIARYQESGELSYTGPAVPPPPSEKGWKDTIQAHAGEVLRIAATFGPYSGRYVWHCHILEHEDYDMMRPMDITDPHK
Usually Km stands for the substrate concentration at which the rate is half of its maximum. In the case of B2, in data set [4], the “kcat, SGZ” value was 3.7 s⁻¹. Further, the Km in data set [4] (read-out: Km, SGZ) is 26 µM; in data set [5] (read-out: Km, ABTS), 106 µM. The Temperature optimum in data set [2] is 75 °C. In addition, the “kcat, ABTS” value in data set [5] was 16.8 s⁻¹.
